# Test results as given in patent US10827753B2, “Compositions and methods for controlling nematodes” (Monsanto Technology LLC, priority 2007, dated 2020).
# Marks after values point to notes of the source that are not given here.
# Tests used:
# Meloidogyne incognita [1] = test: M. incognita miniaturized greenhouse assay on cucumber seedlings (root galling); format: in vivo; design: key to 1 ppm gall ratings / 1 ppm gall rating: mean of 3 gall ratings: 0=0-5%, 1=6-20%, 2=21-50%, 3=51-100% root galled; conditions: for 8 ppm gall ratings: average of triplicate gall rating, scale 0-3 (% root mass galled)
# Procedure: The test compound is dissolved in an acetone solution and added to water. A sprouted cucumber seedling is placed into a vial with dry sand and the water-chemical solution is added immediately. Twenty four hours later Meloidogyne incognita eggs are added to the vials and 10 to 12 days later the roots are evaluated for nematode galling.
# Cucumber seeds are sprouted for 3 days in moist paper towels. Acceptable sprouts should be 3 to 4 cm long with several lateral roots just emerging. Stock solutions of chemistry are prepared in a mixture of acetone and Triton X100 (412 mg in 500 mL) to a final concentration of 5 mg/mL. The chemical stock solution is then added to 10 mL deionized water plus 0.015% Triton X100 and mixed thoroughly. This is enough to test each condition in triplicate. Ten mL dry sand is added to each vial. At this time the solubility of the chemistry is visually determined and recorded as either ppt (large precipitates) or cloudy (fine precipitates). Seedlings are planted by tilting the vial and laying the seedling in the correct orientation so that the cotyledons are just above the sand and then tilting back to cover the radicles with sand. 3.3 ml water/chemical mix is added to each vial and the vials placed in racks under fluorescent light banks. The vials are inoculated two days after planting by adding 500 vermiform M. incognita eggs to each vial in 50 uL of deionized or spring water. The vials are then kept under the fluorescent lamps at ambient room temperature and watered as needed with 1 mL deionized water, usually twice during duration of test. Harvest of the cucumber plants is done 10 to 12 days after inoculation by washing sand off the roots. A root gall rating and visual phytotoxicity rating is assigned using the following scales: Gall rating scale (Gall: % root mass galled): 0=0-5%; 1=6-20%; 2=21-50%; and 3=51-100%. The average of the triplicate gall rating is then calculated: green=0.00-0.33 (no galls); yellow=0.67-1.33 (mild galling); orange=1.67-2.33 (moderate galling); red=2.67-3.00 (severe galling). Visual phytotoxicity scale is also assigned (Vis. tox; visual reduction in root mass compared to the control): rs1=mild stunting; rs2=moderate stunting; rs3=severe stunting.
# root knot nematode (RKN) = test: RKN greenhouse soil assay on cucumber plants; format: in vivo, Meloidogyne incognita
# Excerpt: Cucumber seeds are planted in a sandy soil mixture in two inch square plastic pots. When the cotyledons are fully opened and just as the first leaf begins to emerge, usually 7 days after planting, chemistry for the 7 day treatment is applied. One week later the chemistry for the 0 day treatment is applied. Separate plants are used for each application. The plants are generally in the 1-2 leaf stage now. At least four hours after the chemistry application the pots are inoculated with root knot nematode (RKN) eggs. Plants are rated for galling 14 days after the egg inoculation.
# One milligram of chemistry per four pots is equal to one kilogram per hectare of chemical. A standard test uses four replications. For rates above 2 kg/ha, the desired amount of chemical is weighed into a 30 ml vial (example: 8 kg/ha rate=8 mg chemical in 30 ml vial). The chemical is dissolved in 2 ml of appropriate solvent, generally acetone. For rates below 2 kg/ha, 2 milligrams of chemistry is weighed into the vial and dissolved in 2 ml of the solvent. The appropriate amount of chemical concentrate is then pipetted into a separate 30 ml vial and solvent is added to bring the volume to 2 ml (example 0.5 kg/ha=0.5 ml of concentrate+1.5 ml solvent). Each dissolved concentrate is then brought to a total of 20 milliliters using 0.05% Triton X 100 surfactant solution.
# Pots to be treated are moist but not saturated. To each of four pots, five milliliters of the appropriate chemical solution is pipetted to the media surface making sure to avoid contact with the base of the plant. Immediately following chemical application, using a mist nozzle, the pot surface is wetted sufficiently to saturate the pot watering in the chemistry. The chemical application is done in the morning.
# Nematode eggs, either SCN or RKN, are added to distilled water to create a concentration of 1000 vermiform eggs […]. At least four hours after chemical treatment the eggs are applied to the treated pots plus non-treated check plants. A small hole about 1 cm deep is punched into the pot surface. One milliliter of the nematode egg slurry is pipetted into the hole. Immediately afterwards the hole is gently covered. Watering of the test plants is then restricted to only water as needed to prevent wilt for a period of 24 hours. After the 24 hour restricted watering, normal sub-irrigation watering is done for the duration of the test.
# Meloidogyne incognita [2] = test: Summer field evaluation of pre-plant incorporated compounds on squash; format: in vivo; conditions: 2 kg PPI, squash
# Procedure: Test plots of 33 cm diameter holes were bored 41 cm deep into clay soil and filled with a mixture of 80% sand and 20% silt loam soil. Technical compound for each treatment was dissolved in 50 ml acetone containing 250 ul of Triton X-100 surfactant. This solution was added to 450 ml water and poured onto 95 liters of sand/soil mixture in a rotating drum mixer. While continuing to rotate the mixing drum 66 grams of chopped, galled, tomato roots was added and thoroughly distributed. The treated soil was sufficient to fill the top 15 cm of each of the 6 replicate plots, thus simulating a PPI treatment. The plots were then watered lightly and a mixture of M. incognita eggs and larvae were injected 5 cm deep at 5 points within the plot (100 k eggs/larvae in 10 ml per plot). Three-week old squash (cv. Liberator III) with 1 fully expanded true leaf was planted 4 days after soil treatment, one per plot.
smiles,measurement,setting,value
"c1ccc(-c2cc(-c3ccco3)n[nH]2)cc1 [3-(furan-2-yl)-5-phenyl-1H-pyrazole, reference compound]","nematicidal activity (in words, referring to table 1D)",Meloidogyne incognita [1]; 8 ppm,nematicidal activity is seen
c1ccc(-c2nc(-c3cccs3)cs2)cc1 [compound 1787],1 ppm gall rating,Meloidogyne incognita [1]; Table 1D test b,3^b (3=51-100%)
same,8 ppm gall rating,"Meloidogyne incognita [1]; 8 ppm, Table 1D test b",1.67^b
Brc1ccc(-c2nnc(-c3cccs3)o2)cc1 [compound 4948],8 ppm gall ratings,Meloidogyne incognita [1]; 8 ppm,0 (0=0-5%)
FC(F)(F)c1ccc(-c2nnc(-c3cccs3)o2)cc1 [compound 4971],8 ppm gall ratings,Meloidogyne incognita [1]; 8 ppm,0.67
Cc1ccc(-c2nnc(-c3cccs3)o2)cc1 [compound 5006],8 ppm gall ratings,Meloidogyne incognita [1]; 8 ppm,0 (0=0-5%)
Clc1cccc(-c2nnc(-c3cccs3)o2)c1 [compound 5012],8 ppm gall ratings,Meloidogyne incognita [1]; 8 ppm,0.67
Clc1ccc(-c2nnc(-c3ccco3)o2)cc1 [compound 5082],8 ppm gall ratings,Meloidogyne incognita [1]; 8 ppm,1.67
Cc1ccccc1-c1nnc(-c2cccs2)o1 [compound 5090],8 ppm gall ratings,Meloidogyne incognita [1]; 8 ppm,1.67
FC(F)(F)c1ccc(-c2nnc(-c3ccco3)o2)cc1 [compound 5132],8 ppm gall ratings,Meloidogyne incognita [1]; 8 ppm,1.33
FC(F)(F)c1cccc(-c2noc(-c3ccco3)n2)c1 [compound 5181],8 ppm gall ratings,Meloidogyne incognita [1]; 8 ppm,0.33
FC(F)(F)c1cccc(-c2noc(-c3cccs3)n2)c1 [compound 5212],8 ppm gall ratings,Meloidogyne incognita [1]; 8 ppm,1 (1=6-20%)
c1cncc(-c2noc(-c3ccco3)n2)c1 [compound 5292],8 ppm gall ratings,Meloidogyne incognita [1]; 8 ppm,0.67
c1cncc(-c2noc(-c3cccs3)n2)c1 [compound 5297],8 ppm gall ratings,Meloidogyne incognita [1]; 8 ppm,0.33
c1ccc(-c2noc(-c3ccco3)n2)cc1 [compound 5383],1 ppm gall ratings,Meloidogyne incognita [1]; Table 1B test a,1.33^a
c1csc(-c2nnc(-c3cccc4ccccc34)o2)c1 [compound 5456],8 ppm gall ratings,Meloidogyne incognita [1]; 8 ppm,0.67
Ic1ccc(-c2noc(-c3cccs3)n2)cc1 [compound 5468],8 ppm gall ratings,Meloidogyne incognita [1]; 8 ppm,1 (1=6-20%)
Brc1ccc(-c2nc(-c3cccs3)no2)cc1 [compound 5475],8 ppm gall ratings,Meloidogyne incognita [1]; 8 ppm,1.33
Fc1ccc(-c2noc(-c3ccco3)n2)cc1 [compound 5478],8 ppm gall ratings,Meloidogyne incognita [1]; 8 ppm,0 (0=0-5%)
Clc1ccc(-c2nnc(-c3ccco3)o2)c(Cl)c1 [compound 5499],1 ppm gall ratings,Meloidogyne incognita [1]; Table 1B test a,1^a (1=6-20%)
same,8 ppm gall ratings,Meloidogyne incognita [1]; 8 ppm,0 (0=0-5%)
Ic1ccc(-c2noc(-c3ccco3)n2)cc1 [compound 5556],8 ppm gall ratings,Meloidogyne incognita [1]; 8 ppm,0.33
c1ccc(-c2cnc(-c3ccco3)o2)cc1 [compound 5586],8 ppm gall ratings,Meloidogyne incognita [1]; 8 ppm,0.67
Brc1ccc(-c2cnc(-c3ccco3)o2)cc1 [compound 5587],8 ppm gall ratings,Meloidogyne incognita [1]; 8 ppm,0 (0=0-5%)
Fc1ccc(-c2cnc(-c3ccco3)o2)cc1 [compound 5618],8 ppm gall ratings,Meloidogyne incognita [1]; 8 ppm,1.33
Cc1cccc(-c2noc(-c3cccs3)n2)c1 [compound 5622],8 ppm gall ratings,Meloidogyne incognita [1]; 8 ppm,0 (0=0-5%)
Cc1ccc(-c2noc(-c3cccs3)n2)cc1 [compound 5623],8 ppm gall ratings,Meloidogyne incognita [1]; 8 ppm,0 (0=0-5%)
Cc1cccc(-c2noc(-c3ccco3)n2)c1 [compound 5625],8 ppm gall ratings,Meloidogyne incognita [1]; 8 ppm,0.33
c1ccc(-c2csc(-c3cccs3)n2)cc1 [compound 5645],1 ppm gall rating,Meloidogyne incognita [1]; Table 1D test b,2^b (2=21-50%)
same,8 ppm gall rating,"Meloidogyne incognita [1]; 8 ppm, Table 1D test b",0^b (0=0-5%)
Brc1cccc(-c2noc(-c3cccs3)n2)c1 [compound 5663],1 ppm gall rating,Meloidogyne incognita [1]; Table 1D test b,1.67^b
same,8 ppm gall rating,"Meloidogyne incognita [1]; 8 ppm, Table 1D test b",0^b (0=0-5%)
same,8 ppm gall ratings,Meloidogyne incognita [1]; 8 ppm,0 (0=0-5%)
Cc1ccc(-c2nnc(-c3ccco3)o2)cc1 [compound 5666],8 ppm gall ratings,Meloidogyne incognita [1]; 8 ppm,1.33
Brc1cccc(-c2nnc(-c3ccco3)o2)c1 [compound 5671],8 ppm gall ratings,Meloidogyne incognita [1]; 8 ppm,0.67
Brc1cccc(-c2noc(-c3ccco3)n2)c1 [compound 5672],8 ppm gall ratings,Meloidogyne incognita [1]; 8 ppm,0 (0=0-5%)
c1ccc(-c2cc(-c3ccco3)n[nH]2)cc1 [compound 5725],1 ppm gall rating,Meloidogyne incognita [1]; Table 1D test a,3^a (3=51-100%)
same,8 ppm gall rating,"Meloidogyne incognita [1]; 8 ppm, Table 1D test a",1.33^a
Cc1ccc(-c2noc(-c3ccco3)n2)cc1 [compound 5735],1 ppm gall rating,Meloidogyne incognita [1]; Table 1D test a,2^a (2=21-50%)
same,8 ppm gall rating,"Meloidogyne incognita [1]; 8 ppm, Table 1D test a",0^a (0=0-5%)
Clc1ccccc1-c1noc(-c2cccs2)n1 [compound 5738],1 ppm gall rating,Meloidogyne incognita [1]; Table 1D test a,1.33^a
same,8 ppm gall rating,"Meloidogyne incognita [1]; 8 ppm, Table 1D test a",0^a (0=0-5%)
Cc1ccccc1-c1noc(-c2cccs2)n1 [compound 5741],1 ppm gall rating,Meloidogyne incognita [1]; Table 1D test a,1^a (1=6-20%)
same,8 ppm gall rating,"Meloidogyne incognita [1]; 8 ppm, Table 1D test a",0^a (0=0-5%)
Fc1cc(Cl)ccc1-c1noc(-c2cccs2)n1 [compound 5860],percent control (galling reduction) relative to the control blank treatment,"root knot nematode (RKN); 0 day treatment, 0.25 kg/ha, test a",47^a percent
same,percent control (galling reduction) relative to the control blank treatment,"root knot nematode (RKN); 0 day treatment, 1 kg/ha, test a",85^a percent
same,percent control (galling reduction) relative to the control blank treatment,"root knot nematode (RKN); 7 day treatment, 1 kg/ha, test a",86^a percent
Clc1ccc(-c2cnc(-c3cccs3)o2)cc1 [compound 5864],1 ppm gall ratings,Meloidogyne incognita [1]; Table 1B test a,1^a (1=6-20%)
Cc1occc1-c1nc(-c2ccc(Cl)cc2)no1 [compound 5867],1 ppm gall rating,Meloidogyne incognita [1]; Table 1C test a,1^a (1=6-20%)
COc1ccc(-c2noc(-c3ccoc3C)n2)cc1 [compound 5869],1 ppm gall rating,Meloidogyne incognita [1]; Table 1C test a,1^a (1=6-20%)
Cc1cc(Cl)ccc1-c1nnc(-c2ccoc2)o1 [compound 5876],1 ppm gall rating,Meloidogyne incognita [1]; Table 1C test c,1.67^c
Clc1ccc(-c2noc(-c3ccoc3)n2)cc1 [compound 5882],1 ppm gall ratings,Meloidogyne incognita [1]; Table 1B test a,0.67^a
same,1 ppm gall rating,Meloidogyne incognita [1]; Table 1C test c,0.67^c
Clc1ccc(-c2noc(-c3ccsc3)n2)cc1 [compound 5885],1 ppm gall rating,Meloidogyne incognita [1]; Table 1C test a,1^a (1=6-20%)
Clc1ccc(-c2cnc(-c3ccsc3)o2)cc1 [compound 5886],1 ppm gall rating,Meloidogyne incognita [1]; Table 1C test b,1.33^b
Clc1ccc(-c2cnc(-c3ccoc3)o2)cc1 [compound 5887],1 ppm gall rating,Meloidogyne incognita [1]; Table 1C test b,1^b (1=6-20%)
Clc1cc(Br)ccc1-c1nsc(-c2ccco2)n1 [compound 5961],percent control (galling reduction) relative to the control blank treatment,"root knot nematode (RKN); 0 day treatment, 0.05 kg/ha, test c",— — 73^c percent
same,percent control (galling reduction) relative to the control blank treatment,"root knot nematode (RKN); 0 day treatment, 0.1 kg/ha, test c",— — 88^c percent
same,percent control (galling reduction) relative to the control blank treatment,"root knot nematode (RKN); 0 day treatment, 0.25 kg/ha, test c",— — 81^c percent
Cc1cc(Cl)ccc1-c1nc(-c2ccco2)no1 [compound 5969],1 ppm gall ratings,Meloidogyne incognita [1]; Table 1B test e,1^e (1=6-20%)
Fc1cc(Cl)ccc1-c1ncc(-c2cccs2)o1 [compound 5970],1 ppm gall ratings,Meloidogyne incognita [1]; Table 1B test e,1^e (1=6-20%)
"CCOP(=O)(SC(C)CC)N1CCSC1=O (centres unmarked) [fosthiazate, reference compound]",0-3 vigor 16 DAP,Meloidogyne incognita [2],3.0
same,0-3 vigor 21 DAP,Meloidogyne incognita [2],3.0
same,feeder root (3 = ave) 31 DAP,Meloidogyne incognita [2],2.3
same,gall % 31 DAP,Meloidogyne incognita [2],5%
same,root wgt (g) 31 DAP,Meloidogyne incognita [2],26.4 g
same,top wgt (lbs) 31 DAP,Meloidogyne incognita [2],2.01 lbs
same,total fruit (lbs),Meloidogyne incognita [2],1.25 lbs
